This passage reports IC50 results from patent US20260365672A1, “K-RAS MUTANT PROTEIN INHIBITORS” (Jacobio Pharmaceuticals Co., Ltd., priority 2022, published 2026).

The target in this assay is T1, GDP-KRAS G12V (Homo sapiens, UniProt P01116, G12V).
T1 construct: GDP-loaded HIS-KRAS(G12V, aa 1-169)
T1 sequence (P01116 1-169 isoform P01116-2 G12V): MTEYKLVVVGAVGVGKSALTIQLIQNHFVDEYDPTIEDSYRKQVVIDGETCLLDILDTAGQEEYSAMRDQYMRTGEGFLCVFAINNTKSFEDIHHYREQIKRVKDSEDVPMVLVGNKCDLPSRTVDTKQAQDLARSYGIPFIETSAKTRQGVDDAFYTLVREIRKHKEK
Description: SOS1 catalyzed nucleotide exchange assay (TR-FRET). The assay is classed as biochemical. The following applies: GDP-loaded HIS-KRAS(G12V, aa 1-169) 10-15 nM; 0.5 μM SOS1 ExD; 80 nM BODIPY FL GTP; 15 min pre-incubation, 4 hours at 25 °C. As for the experimental part:
GDP-loaded HIS-KRAS(G12V, aa 1-169) was pre-incubated with a compound in the presence of 10 nM GDP in a 384-well plate (Greiner) for 15 min, then purified SOS1 ExD (Flag tag, aa 564-1049), BODIPY™ FL GTP (Invitrogen) and MAb (monoclonal antibody) Anti 6HIS-Tb cryptate Gold (Cisbio) were added to the assay wells (Final concentration: 10-15 nM GDP-loaded HIS-KRAS(G12V), 5 nM GDP, 0.5 μM SOS1 ExD, 80 nM BODIPY™ FL GTP, 52.5 ng/mL MAb Anti 6HIS-Tb cryptate Gold) and incubated for 4 hours at 25 °C. Wells containing same percent of DMSO served as vehicle control, and wells without KRAS served as low control. TR-FRET signals were read on Tecan Spark multimode microplate reader. The parameters were F486: Excitation 340 nm, Emission 486 nm, Lag time 100 μs, Integration time 200 μs; F520: Excitation 340 nm, Emission 520 nm, Lag time 100 μs, Integration time 200 μs. TR-FRET ratios for each individual wells were calculated by equation: TR-FRET ratio=(Signal F520/Signal F486)*10000. The percent of activation of compounds treated wells were normalized between vehicle control and low control (% Activation=(TR-FRET ratioCompound treated−TR-FRET ratioLow control)/(TR-FRET ratioVehicle control−TR-FRET ratioLow control)*100%). Then the data were analyzed either by fitting a 4-parameter logistic model or by Excel to calculate IC50 values.
A general note: TR-FRET usually uses a lanthanide donor and a delayed reading to cut background.
`C#Cc1c(F)ccc2cc(O)cc(-c3nc4c5c(nc(OC[C@@]67CCCN6C[C@H](F)C7)nc5c3F)N(C)C3CC3N4C)c12` (mixture of isomers) [Compound 2] showed an IC50 of 26.4 nM.

Compound `C#Cc1c(F)ccc2cc(O)cc(-c3nc4c5c(nc(OC[C@@]67CCCN6C[C@H](F)C7)nc5c3F)N(C)C3COCC3N4C)c12` (mixture of isomers) [Compound 3] yielded an IC50 of 0.757 nM.

Regarding `C#Cc1c(F)ccc2cc(O)cc(-c3nc4c5c(nc(OCC67CCCN6CC(F)C7)nc5c3F)N(C)C3CCCC3N4C)c12` (centres unmarked) [Compound 1], inhibition was half-maximal at 4.38 nM (IC50).

Compound `C#Cc1c(F)ccc2cc(O)cc(-c3nc4c5c(nc(OC[C@@]67CCCN6C[C@H](F)C7)nc5c3F)N(C)[C@H]3COC[C@H]3N4)c12` [Compound 4] displayed a half-inhibitory concentration (IC50) of 1.35 nM.

The compound `C#Cc1c(F)ccc2cc(N)cc(-c3nc4c5c(nc(OCC67CCCN6CC(F)C7)nc5c3F)N(C)C3COCC3N4C)c12` (centres unmarked) [Compound 5] returned an IC50 of 5.58 nM.

In general, IC50 refers to the concentration that inhibits the measured activity by half. A high value points to a need for much substance.
